In one series the target is acetylcholinesterase (Homo sapiens, UniProt P22303). To be noted: cited from earlier work.
For series [1] the following is noted: in contrast to neostigmine; cited from earlier work.
In a further series the test system is monoamine oxidase. The note with it: cited from earlier work.
In a further series the test system is smokers. Description: Influence of deoxypeganine on the smoking of healthy subjects. To be noted: for Cigarette consumption after administration of 50 mg of deoxypeganine HCl/day: subject (smoker), 50 mg/day, administration period 24 hours. It counts as in vivo, human. As to the method: Example: Influence of deoxypeganine on the smoking of healthy subjects
In the context of the testing of a deoxypeganine-containing formulation which releases about 50 mg of deoxypeganine hydrochloride per day in vivo, in addition to other subjects two smokers were also used as test subjects, as “smoking” was not an exclusion criterion in the testing. […] The administration period was 24 hours.

acetylcholinesterase, sequence (P22303 32-614, species assumed): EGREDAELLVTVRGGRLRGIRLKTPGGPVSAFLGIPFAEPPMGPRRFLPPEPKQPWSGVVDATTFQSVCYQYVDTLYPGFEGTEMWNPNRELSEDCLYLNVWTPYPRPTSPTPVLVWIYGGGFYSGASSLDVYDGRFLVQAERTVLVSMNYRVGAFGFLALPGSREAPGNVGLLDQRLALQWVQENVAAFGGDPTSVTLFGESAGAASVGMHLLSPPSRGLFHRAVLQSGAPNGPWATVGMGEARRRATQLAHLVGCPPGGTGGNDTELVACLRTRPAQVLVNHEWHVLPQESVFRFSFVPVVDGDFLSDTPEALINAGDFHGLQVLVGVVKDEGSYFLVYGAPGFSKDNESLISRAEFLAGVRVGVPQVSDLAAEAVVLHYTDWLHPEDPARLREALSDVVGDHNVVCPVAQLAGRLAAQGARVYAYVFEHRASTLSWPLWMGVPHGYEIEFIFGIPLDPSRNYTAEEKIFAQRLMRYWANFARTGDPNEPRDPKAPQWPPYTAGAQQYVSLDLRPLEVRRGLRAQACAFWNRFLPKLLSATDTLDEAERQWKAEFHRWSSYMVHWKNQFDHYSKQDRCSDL

As for `c1ccc2c(c1)CN1CCCC1=N2` [deoxypeganine], the “Cholinesterase inhibitory action in comparison to physostigmine” value on acetylcholinesterase (based on the unit of weight) is given as “somewhat lower”. In addition, the Acetylcholinesterase inhibition result at acetylcholinesterase (reversibly acting cholinesterase inhibitor) is “inhibits”. Further, the Blood-brain barrier crossing result in series [1] is recorded as “crosses the blood-brain barrier”. In the series on monoamine oxidase, the Monoamine oxidase inhibition result is “inhibits”. Also, the “Reduction in cigarette consumption” value in the series with smokers (single administration of 50 mg/day) is “considerable reduction”.

On to `Cl.c1ccc2c(c1)CN1CCCC1=N2` [deoxypeganine HCl, deoxypeganine hydrochloride], for which the entries for the “Cigarette consumption after administration of 50 mg of deoxypeganine HCl/day” value with smokers (without deoxypeganine 22 cigarettes/day (mean of n = 3)) and in the series on smokers (without deoxypeganine 41 cigarettes/day (mean of n = 5)) were 3 cigarettes and 6 cigarettes, respectively. In the series with smokers (two smokers, formulation releasing about 50 mg of deoxypeganine hydrochloride per day, 24 hours), the Desire for cigarettes result is on record as “obviously suppressed”.

The values above are taken from patent US6548510B1, “Pharmaceutical composition containing deoxypeganine for the treatment of nicotine dependence” (priority 1999, dated 2003).
